Laboratory results reported in patent publication US11110158B2, “Prostate-associated antigens and vaccine-based immunotherapy regimens” (Pfizer Inc., priority 2012, dated 2021).
“And” between values parts separate entries of the source, which are not always exact repeats. Equal entries are not always repeated. Where two headings read alike, the source gives them in different places.

Assays:
[1] = test system: Myeloid Derived Suppressor Cells (MDSC); assay: Adoptively transferred MDSC recovered from spleen of BALB/c mice dosed with sunitinib; format: in vivo, mouse; conditions: CFSE+, CD3−, GR1+, CD11b+ cells, 2 days post adoptive transfer, vehicle 17470 +/− 2017
Description: To generate MDSC enriched splenocytes, TUBO cells (1×10^6) were implanted into the flanks of 5 BALB/neuT mice, and left for approx. 20-30 days until tumor volume reached between 1000-1500 mm^3. Mice were then sacrificed, spleens removed and the MDSC enriched splenocytes recovered. Splenocytes were labeled for 10 minutes with 5 μM CFSE, washed with PBS and counted. Labeled cells were subsequently resuspended at 5×10^7 splenocytes/ml in PBS solution and adoptively transferred via an i.v. tail vein injection into naïve BALB/c recipient mice. Three days prior to adoptive transfer, the recipient mice began bi-daily dosing with vehicle or sunitinib malate (Sutent) at 5 mg/kg, 10 mg/kg and 20 mg/kg. Following adoptive transfer, recipient mice continued to receive bi-daily dosing of Vehicle or sunitinib for two further days, after which point the mice were sacrificed, spleens removed, splenocytes recovered and processed for phenotypic analysis.
Splenocytes were counted and resuspended at 5×10^6 cells/ml in FACS staining buffer (PBS, 0.2% (w/v) bovine serum albumin, and 0.02% (w/v) Sodium Azide). For flow cytometry staining of splenocytes, 2.5×10^6 cells were first incubated with anti-bodies to CD16/CD32, 10 minutes at 4° C., to block Fc receptors and minimize non-specific binding. Splenocytes were then stained for 20 minutes at 4° C. with appropriate fluorophore conjugated antibodies (Biolegend) to murine cell surface markers. For T cells (anti-CD3 (Pacific Blue), clone 17A2) and for MDSC (anti-GR-1 (APC), clone RB6-8C5 and anti-CD11b (PerCp Cy5.5), clone M1/70). A live/dead stain was also included. […] To monitor the effect of Sunitinib or Vehicle on the adoptively transferred MDSC survival, we calculated the percentage of CFSE+,CD3−,GR1+,CD11b+ in the live, singlet gate. We then determined the number of adoptively transferred MDSC per spleen by calculating what actual cell number the percentage represented of total splenocytes count. Data was analyzed by FloJo and Graph pad software.

[2] = test system: phosphorylated STAT3; assay: Phosphor-STAT3 ELISA of spleen extracts of TUBO tumor bearing BALB/neuT mice after Sutent; format: in vivo, mouse
Description: (§1) The acute effect of Sutent on the phosphorylation status of STAT3 in the spleen was investigated in a subcutaneous tumor mouse model to evaluate the direct immunomodulatory effects of the compound. Briefly, 10-12 week old female BALB/neuT mice were implanted with 1e6 TUBO cells subcutaneously in the right flank. After forty one days post tumor implant, Sutent was given by oral gavage at 20 mg/kg. At 0, 1, 3, 7 and 24 hrs post Sutent dosing, three animals per timepoint were sacrificed under IAUCUC guidelines and spleens were immediately snap frozen in liquid nitrogen to preserve the phosphorylation status. Spleens from female BALB/c mice were snap frozen to use as healthy mice controls.
(§2) Snap frozen spleens were homogenized at 100 mg tissue per 500 μL lysis buffer (70 mM NaCl, 50 mM β-glycerol phosphate, 10 mM HEPES, 1% Triton X-100, 100 mM Na3VO4, 100 mM PMSF, 1 mg/mL leupeptin) using a polytron tissue homogenizer. Resulting digests were centrifuged at 10,000 g for 15 minutes. The supernatant was isolated and protein concentrations were determined using BCA protein assay kit (Pierce, Rockford, Ill.). Forty micrograms of protein were added to each well of either a total STAT3 (eBioscience, cat no. 85-86101-11) or phosphor-STAT3 (eBioscience, cat no. 85-86102-11) ELISA Kit. Relative levels of either protein were compared with standards provided in the kit and with standards purchased independently (Signaling Technologies, cat no. 9333-S).

[3] = test system: total STAT3; assay: Total STAT3 ELISA of spleen extracts of TUBO tumor bearing BALB/neuT mice after Sutent; format: in vivo, mouse
Description: as §1, §2

[4] = Mendel et al.; cited from earlier work
[5] = Kinetics of blood sunitinib by LC/MS/MS in BALB/neuT mice with subcutaneous TUBO tumors; format: in vivo, mouse; conditions: for concentration at 2 h: peak at 2 hrs
Description: The kinetics of blood sunitinib was investigated in BALB/neuT mice with subcutaneous TUBO tumors. Briefly, 20 mice per each treatment group were given Sutent orally, at 20 mg/kg once a day (SID) or at 10 mg/kg twice a day (BID) with 6 hr intervals, 6 days after tumor implantation. Submandibular blood from 2-3 mice was collected into lithium heparin tubes at several time points after Sutent dosing as indicated (0, 2, 4, 6, 8, 10, 12, and 24 hr). The plasma supernatant was recovered from the tubes after centrifugation at ×1000 g for 15 min. and the sunitinib levels from the plasma samples were measured by LC/MS/MS. The mean and standard error of the mean of each group at each time point is plotted.

[6] = test system: subcutaneous TUBO tumors; assay: Subcutaneous TUBO tumor growth and survival in BALB/neuT mice, sunitinib malate with cancer vaccine; format: in vivo, mouse; conditions: FIG. 33D; Sutent 20 mg/kg for 34 days combined with cancer vaccine
Description: The Anti-tumor efficacy of sunitinib malate in combination with an anti-cancer DNA vaccine was investigated in BALB/neuT transgenic female mice. Heterozygote BALB/neuT transgenic female mice that express rat Her-2 (rHer-2) tumor associate antigen were implanted subcutaneously with 1e6 TUBO cells expressing rHer-2 which are derived from the spontaneous mammary tumors of BALB/neuT mice. After 7 days post tumor cell implantation, the mice were dosed once a day orally with either vehicle or sunitinib malate at doses as indicated in the legends. Three days after the initiation of sunitinib malate therapy, the mice were immunized with regimens comprised of either (a) control vaccine that expresses an antigen that is not expressed in the tumor or the mouse or (b) DNA cancer vaccine construct that expresses a rat Her-2 antigen of SEQ ID NO: 54 (rHER2) which is expressed in the tumor and the mouse. The tumor growth rate was analyzed by measuring the long (a) and short diameter (b) of the subcutaneous TUBO tumors twice a week and calculating the volume as a×b^2×0.5 mm^3. The average and standard error of the mean of the tumor volumes from 10 mice per each treatment group are plotted against the days after tumor implantation. […]

[7] = intravenous infusion, cited from earlier work
[8] = test system: hPSMA full-length protein; assay: IFN-γ ELISPOT, hPSMA modified versus full-length DNA vaccine in C57BL/6 mice; format: in vivo, human; conditions: Example 7, FIG. 26; C57BL/6, PMED days 0, 14, 28; day 35
Text: The immune responses induced by DNA vaccination using a construct encoding an immunogenic PSMA polypeptide (the “human PSMA modified antigen” or “hPSMA modified”) consisting 15-750 amino acids (aa) of the native human PSMA protein of SEQ ID NO: 1 were compared with those induced by the native human full-length PSMA protein (hPSMA full length). Groups of female C57BL/6 mice or female Pasteur (HLA-A2/DR1) transgenic mice were primed on day 0 and boosted on days 14, 28 by PMED administration with a 2 μg dose of a DNA vaccine encoding either hPSMA full-length or hPSMA modified protein. Mice were bled and sacrificed on day 35 (7 days after the third vaccination) and T cell immune responses against the hPSMA full-length protein were determined in splenocytes by IFN-γ ELISPOT assay. For C57BL/6 mice, single cell suspensions of 5×10^5 splenocytes from individual animals were plated per well with […] purified hPSMA protein, 5×10^4 TRAMP-C2 cells alone, or TRAMP-C2 cells expressing hPSMA or a PSMA-PSA-PSCA fusion protein. […] Responses in Pasteur mice were also determined using 10 μg/ml purified PSMA protein or 5×10^4 SK-Mel5 cells that had been transduced with Adenoviral vectors expressing a control protein (Ad-eGFP) or the full-length human PSMA protein (Ad-hPSMA). […] The number of IFN-γ SFC was counted by a CTL reader. […]

[9] = test system: 293 cells; assay: Expression of PSMA constructs in transfected 293 cells by FACS; format: cell-based; conditions: 293 cells transfected with PJV7563 vector, stained with mouse anti-PSMA antibody three days later; cell surface expression
Description: The expression of the PSMA cytosolic, secreted, and modified antigens was determined by FACS. Mammalian 293 cells were transfected with the PJV7563 PMED vectors encoding the various immunogenic PSMA polypeptides. Three days later, the 293 cells were stained with mouse anti-PSMA antibody, followed with a fluorescent conjugated (FITC) rat anti-mouse secondary antibody.

[10] = test system: human PSMA; assay: ELISA, serum anti-PSMA antibody titers after PMED DNA vaccination; format: in vivo; conditions: Example 7, FIG. 28; Pasteur and C57BL/6 mice; day 35; within the same strain
Description: Serum was subjected to enzyme-linked immunosorbent assays (ELISA) to determine the anti-PSMA and anti-PSCA antibody titers. In brief, ELISA plates were coated with 1 μg/ml of human PSMA or PSCA and incubated overnight at 4° C. Plates were then blocked and incubated at RT for 1 h with 1% bovine serum albumin (BSA). Each serum sample was serially diluted in duplicate starting at a 1:100 dilution and incubated for 1 h at RT. After washing, a horseradish-peroxidise (HRP)-conjugated goat anti-mouse polyclonal IgG antibody was incubated at RT for 1 h. After washing, the TMB Peroxidase EIA-Substrate was incubated at RT for 30 min. The colorimetric reaction was stopped by addition 1N sulfuric acid and the absorbance then read at 450 nm. Titration curves were plotted for each serum sample (sample dilution versus absorbance). The serum titer (subsequently transformed into reciprocal titer) was then taken as the most dilute serum sample tested with an optical density (OD) value of above the lower limit of detection (LLOD; background plus 3 standard deviations) or the serum dilution calculated to achieve an OD value of 1.0. […]
The anti-PSMA and anti-PSCA antibody titers in the serum was determined using ELISA as described in Example 5. […]
Antibody responses induced by the modified and full-length PSMA vaccines were measured in serum from each animal collected on day 35. […]

[11] = 1 hr after Sutent 20 mg/kg oral gavage
[12] = 3 hrs after Sutent 20 mg/kg oral gavage
[13] = 7 hrs after Sutent 20 mg/kg oral gavage
[14] = 24 hrs after Sutent 20 mg/kg oral gavage

In the case of `CCN(CC)CCNC(=O)c1c(C)[nH]c(/C=C2\C(=O)Nc3ccc(F)cc32)c1C` [Sunitinib, butanedioic acid, hydroxy-, (2S)-, compound with N-[2-(diethylamino)ethyl]-5-[(Z)-(5-fluoro-1,2-dihydro-2-oxo-3H-indol-3-ylidine)methyl]-2,4-dimethyl-1H-pyrrole-3-carboxamide (1:1)], the “MDSC #/spleen Mean +/− SEM” value ([1]; Sunitinib 5 mg/kg bi-daily) is reported as 10980 +/− 1082, the “MDSC #/spleen Mean +/− SEM” value ([1]; Sunitinib 10 mg/kg bi-daily) is reported as 4207 +/− 338 and the “MDSC #/spleen Mean +/− SEM” value ([1]; Sunitinib 20 mg/kg bi-daily) is reported as 4440 +/− 440. The “Phospho-STAT3 relative level, Mean” value [2, 11] was 0.23, the “Phospho-STAT3 relative level, individual values” [2, 11] was 0.26 and 0.25 and 0.19 and the “Phospho-STAT3 relative level, Mean” value [2, 12] was 0.19. The “Phospho-STAT3 relative level, individual values” [2, 12] was 0.19 and 0.15 and 0.22, the “Phospho-STAT3 relative level, Mean” value [2, 13] was 0.27 and the “Phospho-STAT3 relative level, individual values” [2, 13] was 0.19 and 0.31 and 0.29. For the same molecule, the “Phospho-STAT3 relative level, Mean” value [2, 14] was 1.44, the “Phospho-STAT3 relative level, individual values” [2, 14] was 1.54 and 1.30 and 1.47 and the “Total STAT3 relative level, Mean” value [3, 11] was 0.09. For the same molecule, the “Total STAT3 relative level, individual values” [3, 11] was 0.12 and 0.08 (2×), the “Total STAT3 relative level, Mean” value [3, 12] was 0.13 and the “Total STAT3 relative level, individual values” [3, 12] was 0.15 and 0.09 and 0.16. For the same molecule, the “Total STAT3 relative level, Mean” value [3, 13] was 0.08, the “Total STAT3 relative level, individual values” [3, 13] was 0.10 and 0.07 and 0.08 and the “Total STAT3 relative level, Mean” value [3, 14] was 0.08. The “Total STAT3 relative level, individual values” [3, 14] was 0.08, the “minimum sunitinib blood level necessary to effectively inhibit tumor growth in monotherapy” value [4] was 50 ng/mL and the “time by which sunitinib cleared the blood” value ([5]; 10 mg/kg BID orally, after the second dose) was ≤ 18 h. For the same molecule, the “time by which sunitinib cleared the blood” value ([5]; 20 mg/kg SID orally, post Sutent dosing) was ≤ 12 h, the concentration at 2 h ([5]; BALB/neuT, mouse, plasma, oral, 10 mg/kg BID (6 hr interval) orally, read-out: blood sunitinib level) was > 50 ng/mL and the concentration at 4 h ([5]; BALB/neuT, mouse, plasma, oral, 10 mg/kg BID orally, by 4 hrs, read-out: blood sunitinib level) was < 50 ng/mL. For the same molecule, the concentration at 6 h ([5]; BALB/neuT, mouse, plasma, oral, 20 mg/kg SID orally, at 6 hrs, read-out: blood sunitinib level) was 50 ng/mL, the concentration at 2 h ([5]; BALB/neuT, mouse, plasma, oral, 20 mg/kg SID orally, read-out: blood sunitinib level) was > 50 ng/mL and the “animals with significantly impaired progression of the tumor after discontinuation of Sutent treatment” value [6] was 60 % of the animals.
For “CP-870893: fully human agonistic CD40 monoclonal antibody, SEQ ID NO: 40 and 41”, the “maximum tolerated dose (MTD)” value ([7]; patients with advanced solid tumors) is given as 0.2 mg/kg and the dose-limiting toxicities ([7]; phase I clinical study) is given as “grade 3 CRS and grade 3 urticaria”.
With “full length human PSMA (SEQ ID NO: 1): native human full-length PSMA protein (aa 1-750), SEQ ID NO: 1; tested as DNA vaccine” the “IFN-γ T cell responses to TRAMP C2-PSMA or purified hPSMA protein” value [8] was “equivalent T cell immune responses”, the “Average mean fluorescent intensity” value [9] was 6425 and the “serum anti-PSMA antibody titers” value [10] was “equivalent anti-PSMA antibody titer”.
